These results are taken from article PMC6958387, “Biological Evaluation of Arylsemicarbazone Derivatives as Potential Anticancer Agents” (Pharmaceuticals, 2019).

Experiment [1] has as its target panel of ten different protein kinases. Description: Kinase inhibition, panel of ten protein kinases. Particulars: 3c: except towards HASPIN, CK1 and GSK3; inactive = IC50 > 10 μM; read-out: IC50 across the kinase panel. It counts as biochemical. An excerpt:
A panel of ten native or recombinant protein kinases was used during this study: […]

Experiment [2] has as its system HL-60 cells. Description: Cell cycle assay (propidium iodide), flow cytometry. The experiment is classed as cell-based, human. Particulars: 72 h. On the procedure: In order to improve the study of the mechanism of death induction by compounds 3c and 4a in HL-60 cells, a test was performed on the flow cytometer after staining with propidium iodide to evaluate the effect of the compounds on cell cycle progression (Figure 6).
(§1) HL-60 cells (3 × 10^5) were plated in 24-well plates and treated with the compounds 3c (13 and 26 μM) and 4a (11 and 22 μM) for 72 h at 37 °C with 5% CO2. In all trials, doxorubicin was used as a positive control. After the incubation period, an aliquot of 500 μL of treated and untreated cells suspension was transferred to an Eppendorf tube and centrifuged to remove the supernatant and continue the protocol of the test. In the cell viability and annexin V assays, kits were used, ViaCount kit and guava nexin kit (Guava Technologies), respectively. The protocols performed in these tests followed the manufacturer’s instructions. For to analyze mitochondrial depolarization, rhodamine 123 fluorescent dye was used. In the assay for cell cycle analysis and DNA fragmentation propidium iodide was used. The experiments were performed on Guava EasyCyte HT (Merck-Millipore) flow cytometer, acquiring 5000 events. The data were analyzed in Guava-Soft™ software version 2.7. Three independent experiments were performed in triplicate.
On the technique in general: A flow cytometer gives signals particle by particle.

The test system of another experiment is HEp-2. Description: MTT cytotoxicity, 72 h. The experiment is classed as cell-based, human. Conditions: Homo sapiens, HEp-2, 72 h of incubation. On the procedure:
(§2) The cytotoxicity assessment was performed against three human cancer cell lines in suspension (K562, HL-60 and MOLT-4) and four adhered (HEp-2, NCI-H292, HT-29 and MCF-7).
(§3) The cells were obtained from the Cell Bank of Rio de Janeiro and maintained in the Laboratory of Cell Culture of the Department of Antibiotics of the Federal University of Pernambuco. The lines K562 (myeloblastic leukaemia), HL-60 (promyelocytic leukemia) and MOLT-4 (lymphoblastic leukemia) were cultured in RPMI 1640 medium and the lines HEp-2 (larynx carcinoma), NCI-H292 (lung carcinoma), HT-29 (colon adenocarcinoma) and MCF-7 (breast adenocarcinoma) were cultured in DMEM medium, supplemented with 10% fetal bovine serum, 2 mM glutamine, 100 U/mL penicillin and 100 μg/mL streptomycin (Gibco™ Life Technologies), at 37 °C and 5% CO2.
(§4) The evaluation of the cytotoxicity of the compounds was performed by the method of 3-(4,5-dimethyl-2-thiazolyl)-2,5-diphenyl-2H-tetrazolium bromide (MTT) (Sigma Aldrich Co., St. Louis, MO, USA). To perform the assay the cells were seeded in 96-well plates at the following concentrations: HL-60 and K562 (0.3 × 10^6 cells/mL); MOLT-4 and PBMC (10^6 cells/mL); NCI-H292, HT-29, HEp-2 e MCF-7 (10^5 cells/mL). Briefly, the compounds previously dissolved in DMSO (dimethylsulfoxide, Vetec, São Paulo, Brazil), were diluted in medium and added to each well at the desired concentrations. For the calculation of the concentration that inhibits 50% of cell growth (IC50) the compounds were serially diluted to obtain the final concentrations between 0.19–25 μg/mL. Doxorubicin was used as the standard in the concentration range between (0.078–10 μg/mL). After 72 h of contact of the cells with the compounds, it was added to each well 25 μL of MTT solution (5 mg/mL). Plates were left for another 3 h in incubator at 37 °C and at the end of that period the supernatant was aspirated. To perform the reading, 100 μL of DMSO was added in each well for the dissolution of the formazan crystals. The amount of formazan was measured by reading the plate at 560 nm absorbance. The IC50 was calculated from the nonlinear regression in the Prisma 7.0 software (GraphPad, San Diego, CA, USA). Each sample was tested in triplicate in three independent experiments.

The subject of another experiment is HL-60. Nature of the experiment: MTT cytotoxicity, 72 h. The experiment is classed as cell-based, human. Conditions: for selectivity index (SI = IC50 PBMC/ IC50 cancer cells): HL-60 versus PBMC; for IC50: Homo sapiens, HL-60, MTT, 72 h of incubation. On the procedure:
as §2, §3, §4

The test system of a further experiment is K562. Nature of the experiment: MTT cytotoxicity, 72 h. The experiment is classed as cell-based, human. Particulars: Homo sapiens, K562, 72 h of incubation. On the procedure:
as §2, §3, §4

The test system of another experiment is HT-29. Nature of the experiment: MTT cytotoxicity, 72 h. It counts as cell-based, human. Conditions: Homo sapiens, HT-29, 72 h of incubation. The procedure: as §2, §3, §4
For the next experiment, the system named is NCI-H292. Description: MTT cytotoxicity, 72 h. It counts as cell-based, human. Particulars: Homo sapiens, NCI-H292, 72 h of incubation. The procedure: as §2, §3, §4
The test system of the next experiment is MOLT-4. Description: MTT cytotoxicity, 72 h. The experiment is classed as cell-based, human. Conditions: Homo sapiens, MOLT-4, 72 h of incubation. The procedure:
as §2, §3, §4

A further experiment relates to MCF-7. Nature of the experiment: MTT cytotoxicity, 72 h. It counts as cell-based, human. Conditions: Homo sapiens, MCF7, 72 h of incubation. On the procedure:
as §2, §3, §4

In experiment [3] the test system is HL-60 cells. Description: DNA fragmentation assay (sub-G1, propidium iodide). The experiment is classed as cell-based, human. Conditions: 72 h.
Text: DNA fragmentation is initiated after chromatin condensation and depends on several variables, such as the time required for the depolarization of the mitochondria and activation of the caspase cascade. In response to DNA damage the p53 protein is activated causing cell cycle arrest in G1 [57]. At flow cytometry the apoptotic cells with fragmented DNA can be identified as the sub-G1 population, seen to the left of the G1 peak. Thus, using the fluorochrome propidium iodide and the same principle of the cell cycle test, an assay was performed to identify HL-60 cells with fragmented DNA (Figure 7).
as §1

Experiment [4] has as its system HL-60 cells. Nature of the experiment: Annexin V-FITC/7-AAD test, flow cytometry. The experiment is classed as cell-based, human. Particulars: for cells in initial apoptosis [Annexin V(+) and 7-AAD(−)] / cells in late apoptosis [Annexin V(+) and 7-AAD(+)] / dead cells [Annexin V(−) and 7-AAD (+)]: 72 h. The procedure:
Aiming to better study the mechanism of induction of death involved in HL-60 cells after treatment with compounds 3c and 4a, a flow cytometric test was performed after double staining with annexin V-FITC/7-AAD. This assay is based on the ability of annexin V to bind with high affinity to phosphatidylserine which is translocated to the outer membrane of apoptotic cells and the 7-AAD dye binds to the DNA of cells with loss of membrane integrity. Thus, in this test it is possible to identify four distinct populations: viable cells [Annexin V(−) and 7-AAD(−)], initial apoptotic cells [Annexin V(+) and 7-AAD(−)], late apoptotic cells [Annexin V(+) and 7-AAD(+)] and dead cells [Annexin V(−) and 7-AAD (+)] [59].
as §1

For experiment [5], the system named is HL-60 cells. Nature of the experiment: Mitochondrial transmembrane potential (rhodamine 123), flow cytometry. The experiment is classed as cell-based, human. Conditions: 72 h. The procedure:
In this sense, in order to evaluate if compounds 3c and 4a induce apoptosis by alterating the mitochondria transmembrane potential, this assay was performed by flow cytometry using the fluorochrome rhodamine 123, because this is able to accumulate in cells with unchanged mitochondrial transmembrane potential.
as §1

On to `NC(=O)N/N=C/c1c(O)ccc2ccccc12` [Compound 3c, 2-Hydroxynaphthaldehyde Semicarbazone], for which the IC50 was 0.073 to 5.1 µM in experiment [1]; 37.1 ± 1.5 µM with HEp-2; 13.1 ± 0.62 µM in the experiment on HL-60; 52.3 ± 1.15 µM with K562; 40.6 ± 1.02 µM in the experiment with HT-29; 56.3 ± 3.05 µM with NCI-H292. In addition, the IC50 in the experiment with MOLT-4 worked out at 41 ± 0.7 µM; with MCF-7, 34 ± 1.06 µM. Besides, the “cells in G1 phase” value turned out to be 63.3% in the experiment with HL-60 cells [2] (13 μM) and 66.2% in the experiment with HL-60 cells [2] (26 μM). Also, the “selectivity index (SI = IC50 PBMC/ IC50 cancer cells)” value in the experiment with HL-60 was 6.2. The figures for the “cells with DNA fragmentation” value in the experiment with HL-60 cells [3] (13 μM) and with HL-60 cells [3] (26 μM) were 3.2% and 7.5%, respectively. In addition, the “cells in initial apoptosis [Annexin V(+) and 7-AAD(−)]” value in the experiment on HL-60 cells [4] (13 μM) is given as 16.7%; with HL-60 cells [4] (26 μM) it was 27.2%. For the same molecule, the “cells in late apoptosis [Annexin V(+) and 7-AAD(+)]” value in the experiment with HL-60 cells [4] (13 μM) was found to be 7.4%; in the experiment with HL-60 cells [4] (26 μM) it was 18.1%. Besides, the “cells in apoptosis (annexin V assay)” value in the experiment with HL-60 cells [4] (highest concentration tested (26 μM)) is on record as “approximately 50%”. The figures for the depolarized cells in the experiment with HL-60 cells [5] (13 μM) and in the experiment on HL-60 cells [5] (26 μM) were 30.9% and 34.2%, respectively.
As for `Cc1ccc(C=NNC(N)=O)cc1` [Compound 3g, 4-Methylbenzaldehyde Semicarbazone], the IC50 in [1] was above 10 µM; with HEp-2, 24.3 ± 0.97 µM; in the experiment on HL-60, 48.5 ± 1.63 µM; in the experiment on K562, 33.3 ± 0.71 µM; in the experiment on HT-29, above 100 µM; in the experiment with NCI-H292 it was above 100 µM. The IC50 is 56.4 ± 0.97 µM in the experiment on MOLT-4 and above 100 µM in the experiment on MCF-7.
As to `CCCCN(N=Cc1ccc([N+](=O)[O-])o1)C(N)=O` [Compound 4a, 5-Nitro-2-(N^2-n-butyl)furfuraldehyde Semicarbazone], the “cells in G1 phase” value is listed as 62.7% with HL-60 cells [2] (11 μM) and 81.9% in the experiment on HL-60 cells [2] (22 μM). The IC50 in the experiment with HEp-2 is 34.4 ± 0.88 µM; in the experiment with HL-60, 11.4 ± 0.27 µM; with K562 it was 24.2 ± 1.15 µM; in the experiment with HT-29, 36.3 ± 0.97 µM; in the experiment on NCI-H292 it was 37.9 ± 1.5 µM; with MOLT-4, 19.5 ± 0.62 µM. The molecule further yielded an IC50 in the experiment on MCF-7 of 33.6 ± 0.71 µM. The “selectivity index (SI = IC50 PBMC/ IC50 cancer cells)” value in the experiment with HL-60 stood at 4.5. Besides, the “cells with DNA fragmentation” value in the experiment on HL-60 cells [3] (11 μM) came to 7.0%; with HL-60 cells [3] (22 μM), 40.3%. Besides, the “cells in initial apoptosis [Annexin V(+) and 7-AAD(−)]” value in the experiment on HL-60 cells [4] (11 μM) is recorded as 5.4%; with HL-60 cells [4] (22 μM) it was 4.7%. The figures for the “cells in late apoptosis [Annexin V(+) and 7-AAD(+)]” value with HL-60 cells [4] (11 μM) and in the experiment on HL-60 cells [4] (22 μM) were 8.3% and 12.5%, respectively. Further, the “dead cells [Annexin V(−) and 7-AAD (+)]” value in the experiment on HL-60 cells [4] (11 μM) is listed as 9.1%; with HL-60 cells [4] (22 μM) it was around 50%. This molecule gave a depolarized cells in the experiment on HL-60 cells [5] (22 μM) of 59.3%.

By IC50 is commonly meant the midpoint of a concentration-inhibition curve.
